This is an account of results in patent US8318774B2, “Compounds involving mGluR5 receptor regulation and methods of making the compounds” (Gruenenthal GmbH, priority 2006, dated 2012).

Molecules are shown by their SMILES.

T1 sequence (I3LUI7 19-1212): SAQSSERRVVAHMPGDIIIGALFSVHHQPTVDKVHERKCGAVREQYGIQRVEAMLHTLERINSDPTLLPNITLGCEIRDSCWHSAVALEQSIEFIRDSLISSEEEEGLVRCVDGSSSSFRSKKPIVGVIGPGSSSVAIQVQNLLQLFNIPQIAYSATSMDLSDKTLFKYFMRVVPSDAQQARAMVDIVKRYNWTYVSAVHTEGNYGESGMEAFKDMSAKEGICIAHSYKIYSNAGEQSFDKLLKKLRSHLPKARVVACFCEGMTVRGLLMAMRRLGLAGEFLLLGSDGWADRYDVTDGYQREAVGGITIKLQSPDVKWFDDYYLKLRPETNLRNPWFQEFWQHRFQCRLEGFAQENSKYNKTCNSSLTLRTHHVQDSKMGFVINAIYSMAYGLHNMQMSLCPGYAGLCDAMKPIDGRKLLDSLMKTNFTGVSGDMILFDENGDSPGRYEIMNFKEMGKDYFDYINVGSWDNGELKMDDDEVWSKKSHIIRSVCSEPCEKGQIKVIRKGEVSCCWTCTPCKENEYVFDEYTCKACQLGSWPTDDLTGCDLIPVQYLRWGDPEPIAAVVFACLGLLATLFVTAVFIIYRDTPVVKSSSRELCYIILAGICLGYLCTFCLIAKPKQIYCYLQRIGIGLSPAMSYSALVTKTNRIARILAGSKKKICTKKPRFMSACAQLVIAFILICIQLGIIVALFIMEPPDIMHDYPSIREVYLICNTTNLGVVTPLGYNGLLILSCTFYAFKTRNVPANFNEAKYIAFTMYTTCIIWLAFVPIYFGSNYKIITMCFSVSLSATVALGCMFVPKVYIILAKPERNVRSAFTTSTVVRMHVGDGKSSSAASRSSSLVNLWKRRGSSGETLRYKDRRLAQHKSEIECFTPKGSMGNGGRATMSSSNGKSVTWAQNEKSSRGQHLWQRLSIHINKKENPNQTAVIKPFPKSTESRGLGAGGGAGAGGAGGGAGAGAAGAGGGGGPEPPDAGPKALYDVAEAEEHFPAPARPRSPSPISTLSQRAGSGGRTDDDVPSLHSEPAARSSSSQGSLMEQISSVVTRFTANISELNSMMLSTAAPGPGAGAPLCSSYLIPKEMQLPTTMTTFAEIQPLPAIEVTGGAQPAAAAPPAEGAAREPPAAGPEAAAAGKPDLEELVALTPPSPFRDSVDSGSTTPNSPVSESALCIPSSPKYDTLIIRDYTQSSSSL

One test concerns the target T1, mGluR5 receptor (pig) (Sus scrofa, UniProt I3LUI7).
T1 construct: 450 μg of protein from brain homogenate are incubated; from tissue; host or cells: pig brain halves without medulla, cerebellum and pons (homogenate, differential centrifugation)
Kind of test: Inhibition of [3H]-MPEP binding in the mGluR5 receptor binding assay (pig brain homogenate). The conditions noted are these: 5 nM [3H]-MPEP, 60 min, room temperature, read-out: IC50 mGluR5 receptor (pig) [3H]-MPEP bonding. As for the experimental part:
I. Method for Determining the Inhibition of the [^3H]-MPEP Binding in the mGluR5 Receptor Binding Assay
Pig brain homogenate is produced by the homogenisation (Polytron PT 3000, Kinematica AG, 10,000 rpm for 90 seconds) of pig brain halves without medulla, cerebellum and pons, in a buffer with pH 8.0 (30 mM Hepes, Sigma, order no. H3375+1 “Complete Tablet” to 100 ml, Roche Diagnostics, order no. 1836145) in the ratio 1:20 (brain weight/volume) and differential centrifuging at 900×g and 40,000×g. 450 μg of protein from brain homogenate are incubated in 250 μl incubation preparation in 96-well microtiter plates, for 60 minutes at room temperature in a buffer (as above), along with 5 nM ^3[H]-MPEP (Tocris, order no. […]
Subsequently, the preparations are filtered on unifilter plates with fibreglass filter mats (Perkin Elmer, order no. 6005177) using a Brandel Cell Harvester (Brandel, TYP Robotic 9600) and subsequently washed with buffer (as above) 3 times with 250 μl per sample in each case. The filter plates are subsequently dried for 60 min at 55° C. Subsequently 30 μl Ultima Gold™ scintillator (Packard Bioscience, order no. 6013159) are added to each well, and after 3 hours the samples are measured with the β-counter (Mikrobeta, Perkin Elmer). The non-specific binding is determined by adding 10 μM MPEP (Tocris, order no. 1212).
In general, IC50 refers to the concentration needed to halve the response being measured. `CN(CCCN(C)c1nccs1)C(=O)C#Cc1ccccc1` [Example 1]: the IC50 was found to be 0.99 µM. Same read-out and setting: to `CN(c1nccs1)C1CCN(C(=O)C#Cc2ccccc2)CC1` [Example 4, 4-(methyl-thiazol-2-yl-amino)-1-(3-phenyl-propiolyl)piperidine] belongs 4.22 µM. Regarding `O=C(C#Cc1ccccc1)N1CCC(Nc2nccs2)CC1` [Example 2, 4-(thiazol-2-yl-amino)-1-(3-phenyl-propiolyl)piperidine], the IC50 was 3.04 µM. Consider `CN(C(=O)C#Cc1ccccc1)C1CCN(c2nccs2)CC1` [Example 6, N-methyl-3-phenyl-N-(1-(thiazol-2-yl)piperidin-4-yl)propiolamide], for which the IC50 is 1 µM.

For the compound `O=C(C#Cc1ccccc1)N1CC2CN(c3nccs3)CC2C1` (stereo not drawn) [Example 3, 3-(thiazol-2-yl)-7-(3-phenyl)-propiolyl-3,7-diaza-bicyclo[3.3.0]octane], the half-inhibitory concentration (IC50) was 4.46 µM. `O=C(C#Cc1ccccc1)NC1CCN(c2nccs2)CC1` [Example 5, 3-phenyl-N-(1-(thiazol-2-yl)piperidin-4-yl)propiolamide]: the half-inhibitory concentration (IC50) was 7.41 µM.

The same test, now with this note: 1 μM test compound, 5 nM [3H]-MPEP, 60 min, room temperature, read-out: % inhibition of mGluR5 receptor (pig) [3H]-MPEP bonding at 1 μM.
What is called inhibition is the percentage by which the read-out fell short of the control. Regarding `COc1cccc(C#CC(=O)NC2CCN(c3nc(C)cs3)CC2)c1` [Example 11, N-(1-(4-methyl-thiazol-2-yl)piperidin-4-yl)-3-(3-methoxyphenyl)-propiolamide], the inhibition at 1 µM was found to be 26%. As for `Cc1csc(N2CCC(NC(=O)C#Cc3ccc(C)c(F)c3)CC2)n1` [Example 20, 3-(3-fluoro-4-methyl-phenyl)-N-(1-(4-methyl-thiazol-2-yl)piperidin-4-yl)-propiolamide], the inhibition at 1 µM stood at 39%. For `Cc1csc(N2CCC(NC(=O)C#Cc3cccc(C(F)(F)F)c3)CC2)n1` [Example 21, N-(1-(4-methyl-thiazol-2-yl)piperidin-4-yl)-3-(3-trifluoromethyl-phenyl)-propiolamide], the inhibition at 1 µM is 32%. Turning to `Cc1csc(N2CCC(NC(=O)C#Cc3ccccc3)CC2)n1` [Example 10, N-(1-(4-methyl-thiazol-2-yl)piperidin-4-yl)-3-phenyl-propiolamide], the inhibition at 1 µM is 36%. Regarding `Cc1csc(N2CCC(NC(=O)C#Cc3ccccc3F)CC2)n1` [Example 16, 3-(2-fluoro-phenyl)-N-(1-(4-methyl-thiazol-2-yl)piperidin-4-yl)-propiolamide], the inhibition at 1 µM worked out at 22%.

`Cc1cccc(C#CC(=O)NC2CCN(c3nc(C)cs3)CC2)c1` [Example 22, N-(1-(4-methyl-thiazol-2-yl)piperidin-4-yl)-3-(3-tolyl)-propiolamide]: the inhibition at 1 µM was 79%.
